Laboratory results as given in US10155041B2, “Bacterial phospholipase inhibitors as modulator of colonic bacterial flora” (Universitaetsklinikum Heidelberg, priority 2014, dated 2018).

How the values were obtained:
hepatic PLA2 = conditions: Stremmel & Staffer, 2012, et al.; cited from earlier work
[1] = system: host mucosal epithelial cells; assay: Absorption from the intestinal lumen; conditions: intestinal lumen of the host
bacterial PLA2 = assay: Determination of PLA2 activity in bacterial lysates (Bhat et al. 1993); type: biochemical
Experimental: FIG. 1 For determination of phospholipase A2 activity according to Bhat et al. (1993), 10 μl of aliquots of certain isolated bacterial strains prepared from fresh stool samples were incubated with arachidonoyl-thio phosphatidylcholine for 1 hour at 25° C. in a Ca^2+ free buffer as described herein. The reaction was terminated by 5,5-dithio-bis-2-nitrobenzoic acid. A405 was measured and specific PLA2 activity expressed as μmol LPC·mg^−1 protein·h^−1
Suspensions of the respective bacterial strain in 0.9% NaCl were prepared in Sarstedt tubes and adjusted to 1.0 (3×10^8CFU/ml) with opacimeter (Densimat® or Densicheck®). Subsequently, a BHI (brain heart infusion, purchased from Merck) was inoculated with 500 μl of the suspension and incubated at 37° C. aerob or in an airtight jar with BD Gas Pak™ for 16 hours overnight on a shaker. […]
PLA2 activity was determined as described by Bhat, et al. (1993).
For substrate preparation, 125 μg substrate arachidonyl PC (AAPC) was pipetted into Eppendorf reaction tubes (therefore, the volume to pipet from AAPC stocks in ethanol as supplied by Cayman Chemicals was calculated). […]
Finally, the absorption was read at 405 nm and 595 nm.
A unit of PLA2 is defined as a nmol of product formed by 1 ml sample in 1 h incubation. PLA2 activity was determined using the following formula: PLA2 activity(unit)=(OD405 nm−OD595 nm)×78.62×50

ursodeoxycholyl lysophosphatidylethanolamide [UDCA-LPE]
inhibition of bacterial phospholipase C (PLC) (phospholipase C (PLC)): shown to be inhibited | inhibition of hepatic PLA2 (hepatic PLA2): interferes with hepatic PLA2 | absorption by host mucosal epithelial cells [1]: do not enter/are not absorbed by the host mucosal epithelial cells in a considerable amount | inhibition of bacterial PLA2 (bacterial PLA2): potent inhibitors
